Test results: patent US20220144812A1, “QUINOLINE DERIVATIVES AND THEIR USE FOR THE TREATMENT OF CANCER” (Epizyme, Inc., priority 2019, published 2022)

Tests used:
EP300 (P300(1048-1664)) = target: T1, EP300 (P300(1048-1664)) (Homo sapiens, UniProt Q09472); test: Biochemical assay for EP300, SAMDI; conditions: EP300, SAMDI; read-out: EP300 Biochemistry IC50
T1 construct: P300(1048-1664)
T1 sequence (Q09472 1048-1664): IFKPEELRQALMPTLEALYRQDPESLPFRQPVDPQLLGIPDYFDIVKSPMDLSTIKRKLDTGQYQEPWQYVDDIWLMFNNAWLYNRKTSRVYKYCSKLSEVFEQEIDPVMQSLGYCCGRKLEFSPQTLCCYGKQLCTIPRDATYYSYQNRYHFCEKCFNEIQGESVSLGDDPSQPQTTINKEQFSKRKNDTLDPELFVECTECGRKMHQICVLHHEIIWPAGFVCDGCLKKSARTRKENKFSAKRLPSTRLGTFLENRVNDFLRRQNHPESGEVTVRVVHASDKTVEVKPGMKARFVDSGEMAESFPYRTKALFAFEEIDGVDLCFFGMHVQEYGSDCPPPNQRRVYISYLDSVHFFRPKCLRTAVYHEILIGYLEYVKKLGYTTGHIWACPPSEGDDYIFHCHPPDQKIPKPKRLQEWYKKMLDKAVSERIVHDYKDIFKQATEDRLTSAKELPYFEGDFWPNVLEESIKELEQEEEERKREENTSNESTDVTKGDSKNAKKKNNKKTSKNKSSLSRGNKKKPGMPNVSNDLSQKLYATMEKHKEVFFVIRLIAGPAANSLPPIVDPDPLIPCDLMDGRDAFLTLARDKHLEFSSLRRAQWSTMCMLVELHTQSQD
Excerpt: The following example describes materials and methods relating to a biochemical assay for EP300. IC50 values (micromolar (μM)) are summarized in Table 1, Table 2, and Table 3 under the column labeled: “EP300 Biochemistry IC50 (micromolar).”

[1] = system: H3K18Ac in HB-CLS-2 cells; test: H3K18AC in-cell western (ICW) assay; type: cell-based; conditions: H3K18Ac in-cell western; read-out: CREBBP ICW IC50
Procedure, shortened: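 HB-CLS-2 cells seeded 16–24 hours before 2 hr compound treatment at 37° C, 5% CO2, then methanol-fixed. H3K18Ac detected with rabbit monoclonal primary (overnight, 4° C) and 800CW anti-rabbit secondary; DRAQ5 stained DNA. Plates imaged at 700 and 800 nm for integrated intensity; IC50 in μM.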

CREBBP (1084-1701) = target: T2, CREBBP (1084-1701) (Homo sapiens, UniProt Q92793); test: Biochemical assay for CREBBP (1084-1701), SAMDI; conditions: SAMDI, read-out: CREBBP Biochemistry IC50
T2 construct: measured in the following biochemical assay using CREBBP (1084-1701); purchased
Procedure, shortened: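 CREBBP (1084-1701) preincubated with compound 30 min at RT, then substrate mix (biotin-H3 11-25 K14R/K23R peptide, acetyl-CoA) added for 30 min at RT. Reaction stopped with formic acid, neutralised with sodium bicarbonate. Peptide acetylation read by SAMDI mass spectrometry to derive IC50.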

647V cells = test: High throughput proliferation (HTP) assay; type: cell-based; conditions: Homo sapiens, 647-V, high throughput proliferation; read-out: CREBBP HTP IC50
Procedure, shortened: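 Exponentially growing 647V cells in DMEM with 15% FBS were treated in triplicate with increasing compound concentrations at 37° C, 5% CO2. Viable cell number was read by CellTiter-Glo luminescence on day 7; IC50 in micromolar.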

T2 sequence (Q92793 1084-1701): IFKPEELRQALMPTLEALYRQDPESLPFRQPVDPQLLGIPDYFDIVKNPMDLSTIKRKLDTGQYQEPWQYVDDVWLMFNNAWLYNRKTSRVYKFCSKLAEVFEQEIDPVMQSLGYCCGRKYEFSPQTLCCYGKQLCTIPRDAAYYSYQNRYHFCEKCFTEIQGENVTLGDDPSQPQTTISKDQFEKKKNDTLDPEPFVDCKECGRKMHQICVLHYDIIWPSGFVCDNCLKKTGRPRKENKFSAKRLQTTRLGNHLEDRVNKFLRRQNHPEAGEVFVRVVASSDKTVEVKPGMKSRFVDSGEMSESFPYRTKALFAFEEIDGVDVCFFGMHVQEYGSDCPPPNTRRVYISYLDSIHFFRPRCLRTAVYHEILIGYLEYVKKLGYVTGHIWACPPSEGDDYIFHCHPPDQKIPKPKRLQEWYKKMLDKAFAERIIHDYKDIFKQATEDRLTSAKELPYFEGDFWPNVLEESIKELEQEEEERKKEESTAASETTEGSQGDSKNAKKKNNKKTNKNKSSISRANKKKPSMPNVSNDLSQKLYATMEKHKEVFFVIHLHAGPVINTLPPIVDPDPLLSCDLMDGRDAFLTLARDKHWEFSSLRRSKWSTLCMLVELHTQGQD

SMILES	IC50 (EP300 (P300(1048-1664))) [nM]	IC50 [1] [nM]	IC50 (CREBBP (1084-1701)) [nM]	IC50 (647V cells) [nM]
CCc1ncc(CN(C)C(=O)c2cc(-c3ccc(NCC(O)CNC)c(C)n3)nc3ccc(Cl)cc23)n1C (stereo not drawn) [Compound 571]	11.1	428	25.4	118
CCc1ncc(CN(C)C(=O)c2cc(-c3ccc(N(C)C4CN(C)C4)c(C)n3)nc3ccc(Cl)cc23)n1C [Compound 572]	23.3	197	116	133
CCc1nc(-c2cc(C(=O)N(C)Cc3cnn(CC)c3C)c3cc(Cl)ccc3n2)ccc1NCCN(C)C [Compound 573]	45.4	52.7	46.5	49.3
CCc1ncc(CN(C)C(=O)c2nc(-c3cc(C)nc(NCCNC)c3)nc3ccc(Cl)cc23)n1C [Compound 574]	16.9	149	47.9	61.3
CCc1noc(CN(C)C(=O)c2cc(-c3ccc(NCCNC)c(C)n3)nc3ccc(Cl)cc23)n1 [Compound 575]	3870	1520	3380	1530
CCc1nc(-c2cc(C(=O)N(C)Cc3cnc(CC)n3C)c3cc(COC)ccc3n2)ccc1NCCN(C)C [Compound 580]	43.9	176	65.9	130
CCn1ncc(CN(C)C(=O)c2nc(-c3cnc4c[nH]nc4c3)nc3ccc(Cl)cc23)c1C [Compound 581]	1430	513	3320	839
CCn1ncc(CN(C)C(=O)c2cc(-c3cc(C4=NCCN4)n(C)n3)nc3ccc(Cl)cc23)c1C [Compound 582]	9.3	65.5	25.8	122
CCc1ncc(CN(C)C(=O)c2nc(-c3cc(C)nc(NCCN(C)C)c3)nc3ccc(Cl)cc23)n1C [Compound 583]	14.2	29.7	34	10.8
CCn1ncc(CN(C)C(=O)c2cc(-c3ccc(NCCNC)c(OC)c3)nc3ccc(Cl)cc23)c1C [Compound 584]	221	273	44.5	165
CCn1ncc(CN(C)C(=O)c2cc(-c3ccc(NCCN(C)C)c(OC)c3)nc3ccc(Cl)cc23)c1C [Compound 585]	903	332	104	177
CCc1nn(C)c(CN(C)C(=O)c2cc(-c3ccc(NCCNC)c(C)n3)nc3ccc(Cl)cc23)c1C [Compound 586]	23300	7240	19400	2130
CCc1nn(C)c(CN(C)C(=O)c2cc(-c3ccc(NCCN(C)C)c(C)n3)nc3ccc(Cl)cc23)c1C [Compound 587]	17300	8020	14200	1610
CCc1ncc(CN(C)C(=O)c2cc(-c3ccc(NCC(O)CN(C)C)c(C)n3)nc3ccc(Cl)cc23)n1C (stereo not drawn) [Compound 588]	8.9	73.3	28.6	27.9
CCc1cc(CN(C)C(=O)c2cc(-c3ccc(NCCN(C)C)c(C)n3)nc3ccc(Cl)cc23)on1 [Compound 590]	734	403	336	390
CCn1ncc(CN(C)C(=O)c2cc(-c3ccc(NCC(CN(C)C)OC)c(C)n3)nc3ccc(Cl)cc23)c1C (stereo not drawn) [Compound 592]	10.9	4500	35.5	7230
CCc1nc(-c2cc(C(=O)N(C)Cc3onc(CC)c3C)c3cc(COC)ccc3n2)ccc1NCCN(C)C [Compound 593]	175	170	53.9	103

SMILES	IC50 (EP300 (P300(1048-1664))) [nM]	IC50 [1] [nM]	IC50 (CREBBP (1084-1701)) [nM]	IC50 (647V cells) [nM]
CCc1nc(-c2cc(C(=O)N(C)Cc3cnn(CC)c3C)c3cc(COC)ccc3n2)ccc1NCCNC [Compound 595]	59.9	145	51.6	99.1
Cc1nc(-c2cc(C(=O)N(C)Cc3cnn(CC(F)(F)F)c3C)c3cc(Cl)ccc3n2)ccc1NCCN(C)C [Compound 597]	28.5	72.6	36.2	78.7
Cc1nc(-c2cc(C(=O)N(C)Cc3cnc(C(F)(F)F)n3C)c3cc(Cl)ccc3n2)ccc1NCCN(C)C [Compound 598]	282	316	105	283
CNCCNc1ccc(-c2cc(C(=O)N(C)Cc3onc(C4CC4)c3C)c3cc(Cl)ccc3n2)nc1C [Compound 599]	1750	1600	518	1260
CCn1ncc(CN(C)C(=O)c2cc(-c3ccc(NC4CN(CC#N)C4)c(C)n3)nc3ccc(Cl)cc23)c1C [Compound 601]	30.2	143	44.9	72.6
CCn1ncc(CN(C)C(=O)c2cc(-c3ccc(NC4CN(CC(F)(F)F)C4)c(C)n3)nc3ccc(Cl)cc23)c1C [Compound 603]	20.3	174	48.7	253
CCn1ncc(CN(C)C(=O)c2cc(-c3ccc(NCC(O)CN(C)C)c(C)n3)nc3ccc(Cl)cc23)c1C (stereo not drawn) [Compound 604]	11.4	64.8	28.5	28.4
CCc1ncc(CN(C)C(=O)c2nc(-c3ccc(NCCN(C)C)nc3C)nc3ccc(Cl)cc23)n1C [Compound 605]	3090	943	533	447
CCc1noc(C(C)N(C)C(=O)c2nc(-c3ccc(NCCN(C)C)c(C)c3)nc3ccc(Cl)cc23)c1C (stereo not drawn) [Compound 606]	14	294	30.3	80.7
CCn1ncc([C@H](C)N(C)C(=O)c2cc(-c3ccc(NCCNC)c(C)n3)nc3ccc(Cl)cc23)c1C [Compound 607]	3380	3270	6510	1970
CCn1ncc([C@@H](C)N(C)C(=O)c2cc(-c3ccc(NCCNC)c(C)n3)nc3ccc(Cl)cc23)c1C [Compound 608]	26.4	107	92.8	39
CCn1ncc([C@@H](C)N(C)C(=O)c2cc(-c3ccc(NCCN(C)C)c(C)n3)nc3ccc(Cl)cc23)c1C [Compound 610]	20.9	85	59.6	37.8
CCn1ncc(CN(C)C(=O)c2nc(-c3cc(C)nc(NCCOC)c3)nc3ccc(Cl)cc23)c1C [Compound 611]	493	345	73.6	312
CCn1ncc(CN(C)C(=O)c2nc(-c3cc4c(NC)[nH]nc4cc3C)nc3ccc(C)cc23)c1C [Compound 612]	6.6	46.3	18	40.9
CCc1noc(CN(C)C(=O)c2cc(-c3ccc(NC4CN(C)C4)c(C)n3)nc3ccc(Cl)cc23)c1C [Compound 613]	11.2	53.8	19.1	51.8
CCn1ncc(CN(C)C(=O)c2nc(-c3cc4c(NC)[nH]nc4cc3C)nc3ccc(C4CC4)cc23)c1C [Compound 614]	8.7	32.1	22.9	34.6
